Consider 22 molecules from patent US12084472B2 (Ardelyx, Inc., priority 2015, dated 2024).

Where only a bound is given, the exact number is not on record here.

For this experiment, the target named is T1, human TGR5 (Homo sapiens, UniProt Q8TDU6).
T1 construct: expressed in transfected cells; host or cells: HEK293
T1 sequence (Q8TDU6 1-330): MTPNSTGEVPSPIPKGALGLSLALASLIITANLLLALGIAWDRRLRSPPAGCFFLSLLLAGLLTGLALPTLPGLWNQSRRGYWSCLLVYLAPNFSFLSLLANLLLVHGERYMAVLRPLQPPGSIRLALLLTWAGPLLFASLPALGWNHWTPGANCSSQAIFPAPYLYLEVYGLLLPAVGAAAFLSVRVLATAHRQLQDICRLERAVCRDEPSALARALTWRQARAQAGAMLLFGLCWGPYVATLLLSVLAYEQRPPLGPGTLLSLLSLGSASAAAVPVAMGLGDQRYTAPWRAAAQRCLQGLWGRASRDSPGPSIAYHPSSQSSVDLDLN
As to the kind of experiment: Cell-based TGR5 assay (cAMP generation, HTRF). Particulars: HEK293 cells stably transfected with human TGR5; cAMP by HTRF; 30 minutes at 37° C.; read-out: pEC50 Human TGR5 (converted). An outline of the steps: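 Read-out was HTRF detection of cAMP, converted to concentration via a standard curve and fitted (3-parameter logistic) for pEC50 and maximal response. Agonist stimulation used HEK293 cells stably transfected with human TGR5, incubated 30 min at 37° C in IBMX-containing buffer at 0.05 nM to 10 μM compound.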
With `C=C(CCCNC(=O)[C@@H](O)[C@@H](O)[C@H](O)[C@@H](O)CO)c1ccc(Cl)c(CNC2(c3cnccc3-c3ccccc3OC3CC3)CC2)c1` [Compound I-381, (2S,3S,4R,5S)-N-(4-[4-chloro-3-[([1-[4-(2-cyclopropoxyphenyl)pyridin-3-yl]cyclopropyl]amino)methyl]phenyl]pent-4-en-1-yl)-2,3,4,5,6-pentahydroxyhexanamide], the EC50 was under 100 nM.

For the molecule `O=C(NCCCC1(c2ccc(Cl)c(CNC3(c4cnccc4-c4ccccc4OC4CC4)CC3)c2)CC1)[C@@H](O)[C@@H](O)[C@H](O)[C@@H](O)CO` [Compound I-382, (2S,3S,4R,5S)-N-[3-(1-[4-chloro-3-[([1-[4-(2-cyclopropoxyphenyl)pyridin-3-yl]cyclopropyl]amino)methyl]phenyl]cyclopropyl)propyl]-2,3,4,5,6-pentahydroxyhexanamide], the EC50 was under 100 nM. Consider `C=C(CCCNC(=O)NC[C@H](O)[C@@H](O)[C@H](O)[C@H](O)CO)c1ccc(Cl)c(CNC2(c3cnccc3-c3ccccc3OC3CC3)CC2)c1` [Compound I-383, 1-(4-{4-chloro-3-[({1-[4-(2-cyclopropoxyphenyl)pyridin-3-yl]cyclopropyl}amino)methyl]phenyl}pent-4-en-1-yl)-3-[(2S,3R,4R,5R)-2,3,4,5,6-pentahydroxyhexyl]urea], for which the EC50 is under 100 nM. Consider `O=C(NCCCC(CO)c1ccc(Cl)c(CNC2(c3cnccc3-c3ccccc3OC3CC3)CC2)c1)NC[C@H](O)[C@@H](O)[C@H](O)[C@H](O)CO` (stereo partly drawn) [Compound I-384, 1-(4-{4-chloro-3-[({1-[4-(2-cyclopropoxyphenyl)pyridin-3-yl]cyclopropyl}amino)methyl]phenyl}-5-hydroxypentyl)-3-[(2S,3R,4R,5R)-2,3,4,5,6-pentahydroxyhexyl]urea], for which the EC50 is 126 to 1000 nM. Under `O=C(NCCCC1(c2ccc(Cl)c(CNC3(c4cnccc4-c4ccccc4OC4CC4)CC3)c2)CC1)NC[C@H](O)[C@@H](O)[C@H](O)[C@H](O)CO` [Compound I-385, 1-[3-(1-{4-chloro-3-[({1-[4-(2-cyclopropoxyphenyl)pyridin-3-yl]cyclopropyl}amino)methyl]phenyl}cyclopropyl)propyl]-3-[(2S,3R,4R,5R)-2,3,4,5,6-pentahydroxyhexyl]urea] stands under 100 nM; under `Cc1ccc(C(CO)CCCNC(=O)[C@@H](O)[C@@H](O)[C@H](O)[C@@H](O)CO)cc1CNC1(c2cnccc2-c2ccccc2OC2CC2)CC1` (stereo partly drawn) [Compound I-386, (2S,3S,4R,5S)-N-(4-{3-[({1-[4-(2-cyclopropoxyphenyl)pyridin-3-yl]cyclopropyl}amino)methyl]-4-methylphenyl}-5-hydroxypentyl)-2,3,4,5,6-pentahydroxyhexanamide], under 100 nM; under `Cc1ccc(C(CO)CCCNC(=O)NC[C@H](O)[C@@H](O)[C@H](O)[C@H](O)CO)cc1CNC1(c2cnccc2-c2ccccc2OC2CC2)CC1` (stereo partly drawn) [Compound I-387, 1-(4-{3-[({1-[4-(2-cyclopropoxyphenyl)pyridin-3-yl]cyclopropyl}amino)methyl]-4-methylphenyl}-5-hydroxypentyl)-3-[(2S,3R,4R,5R)-2,3,4,5,6-pentahydroxyhexyl]urea], 126 to 1000 nM. For the molecule `CCN(CCCCNC(=O)NC[C@H](O)[C@@H](O)[C@H](O)[C@H](O)CO)S(=O)(=O)c1ccc(Cl)c(COC2(c3cnccc3-c3ccccc3OC3CC3)CC2)c1` [Compound I-390, 4-chloro-3-((1-(4-(2-cyclopropoxyphenyl)pyridin-3-yl)cyclopropoxy)methyl)-N-ethyl-N-(4-(3-((2S,3R,4R,5R)-2,3,4,5,6-pentahydroxyhexyl)ureido)butyl) benzenesulfonamide], the EC50 was under 100 nM. Turning to `CC(C)N(CCCCNC(=O)NC[C@H](O)[C@@H](O)[C@H](O)[C@H](O)CO)S(=O)(=O)c1ccc(Cl)c(COC2(c3cnccc3-c3ccccc3OC3CC3)CC2)c1` [Compound I-391, 3-[(2S,3R,4R,5R)-2,3,4,5,6-pentahydroxyhexyl]-1-[4-[N-(propan-2-yl)[4-chloro-3-([1-[4-(2-cyclopropoxyphenyl)pyridin-3-yl]cyclopropoxy]methyl)benzene]sulfonamido]butyl]urea], the EC50 was under 100 nM.

For `CN(CCCCNC(=O)NC[C@H](O)[C@@H](O)[C@H](O)[C@H](O)CO)S(=O)(=O)c1cc(CNC2(c3cnccc3-c3ccccc3OC3CC3)CC2)c(Cl)cc1Cl` [Compound I-392, 1-[4-(N-methyl[2,4-dichloro-5-[([1-[4-(2-cyclopropoxyphenyl)pyridin-3-yl]cyclopropyl]amino)methyl]benzene]sulfonamido)butyl]-3-[(2S,3R,4R,5R)-2,3,4,5,6-pentahydroxyhexyl]urea], the EC50 is under 100 nM. As for `CN(C)S(=O)(=O)c1ccc(Cl)c(COC2(c3cnccc3-c3ccccc3OC3CC3)CC2)c1` [Compound I-393, 4-chloro-3-([1-[4-(2-cyclopropoxyphenyl)pyridin-3-yl]cyclopropoxy]methyl)-N,N-dimethylbenzene-1-sulfonamide], the EC50 is under 100 nM. As to `CNS(=O)(=O)c1ccc(Cl)c(COC2(c3cnccc3-c3ccccc3OC3CC3)CC2)c1` [Compound I-394, 4-chloro-3-({1-[4-(2-cyclopropoxyphenyl)pyridin-3-yl]cyclopropoxy}methyl)-N-methylbenzene-1-sulfonamide], the EC50 is under 100 nM. For `O=S(=O)(c1ccc(Cl)c(COC2(c3cnccc3-c3ccccc3OC3CC3)CC2)c1)N1CCCC1` [Compound I-395, 3-(1-{[2-chloro-5-(pyrrolidine-1-sulfonyl)phenyl]methoxy}cyclopropyl)-4-(2-cyclopropoxyphenyl)pyridine], the EC50 is under 100 nM. Take `O=S(=O)(c1ccc(Cl)c(COC2(c3cnccc3-c3ccccc3OC3CC3)CC2)c1)N1CCCCC1` [Compound I-396, 3-(1-{[2-chloro-5-(piperidine-1-sulfonyl)phenyl]methoxy}cyclopropyl)-4-(2-cyclopropoxyphenyl)pyridine]: the EC50 is under 100 nM. Regarding `O=S(=O)(NC[C@H](O)[C@@H](O)[C@H](O)[C@H](O)CO)c1ccc(Cl)c(COC2(c3cnccc3-c3ccccc3OC3CC3)CC2)c1` [Compound I-397, (2S,3R,4R,5R)-S-[4-chloro-3-({1-[4-(2-cyclopropoxyphenyl)pyridin-3-yl]cyclopropoxy}methyl)phenyl]-2,3,4,5,6-pentahydroxyhexane-1-sulfonamido], the EC50 is 126 to 1000 nM. As to `CN(C[C@H](O)[C@@H](O)[C@H](O)[C@H](O)CO)S(=O)(=O)c1ccc(Cl)c(COC2(c3cnccc3-c3ccccc3OC3CC3)CC2)c1` [Compound I-398, (2S,3R,4R,5R)-S-[4-chloro-3-({1-[4-(2-cyclopropoxyphenyl)pyridin-3-yl]cyclopropoxy}methyl)phenyl]-2,3,4,5,6-pentahydroxy-N-methylhexane-1-sulfonamido], the EC50 is under 100 nM. On to `NCCOCCNS(=O)(=O)c1ccc(Cl)c(COC2(c3cnccc3-c3ccccc3OC3CC3)CC2)c1` [Compound I-399, N-[2-(2-aminoethoxy)ethyl]-4-chloro-3-({1-[4-(2-cyclopropoxyphenyl)pyridin-3-yl]cyclopropoxy}methyl)benzene-1-sulfonamide], for which the EC50 was 126 to 1000 nM. As to `CN(CCOCCN)S(=O)(=O)c1ccc(Cl)c(COC2(c3cnccc3-c3ccccc3OC3CC3)CC2)c1` [Compound I-400, N-[2-(2-aminoethoxy)ethyl]-4-chloro-3-({1-[4-(2-cyclopropoxyphenyl)pyridin-3-yl]cyclopropoxy}methyl)-N-methylbenzene-1-sulfonamide], the EC50 was 126 to 1000 nM.

Take `CCN(CCOCCNC(=O)NC[C@H](O)[C@@H](O)[C@H](O)[C@H](O)CO)S(=O)(=O)c1ccc(Cl)c(COC2(c3cnccc3-c3ccccc3OC3CC3)CC2)c1` [Compound I-411, 1-(2-{2-[N-ethyl4-chloro-3-({1-[4-(2-cyclopropoxyphenyl)pyridin-3-yl]cyclopropoxy}methyl)benzenesulfonamido]ethoxy}ethyl)-3-[(2S,3R,4R,5R)-2,3,4,5,6-pentahydroxyhexyl]urea]: the EC50 was under 100 nM. As for `COCCN(CCCCCNC(=O)NC[C@H](O)[C@@H](O)[C@H](O)[C@H](O)CO)S(=O)(=O)c1ccc(Cl)c(COC2(c3cnccc3-c3ccccc3OC3CC3)CC2)c1` [Compound I-412, 1-{5-[N-(2-methoxyethyl)4-chloro-3-({1-[4-(2-cyclopropoxyphenyl)pyridin-3-yl]cyclopropoxy}methyl)benzenesulfonamido]pentyl}-3-[(2S,3R,4R,5R)-2,3,4,5,6-pentahydroxyhexyl]urea], the EC50 was under 100 nM. As for `COCCN(CCCCCNC(=O)N[C@@H](CO)[C@@H](O)[C@H](O)[C@H](O)CO)S(=O)(=O)c1ccc(Cl)c(COC2(c3cnccc3-c3ccccc3OC3CC3)CC2)c1` [Compound I-413, 1-{5-[N-(2-methoxyethyl)4-chloro-3-({1-[4-(2-cyclopropoxyphenyl)pyridin-3-yl]cyclopropoxy}methyl)benzenesulfonamido]pentyl}-3-[(2S,3R,4S,5R)-1,3,4,5,6-pentahydroxyhexan-2-yl]urea], the EC50 was under 100 nM. Consider `O=C(NCCCCN(CCO)S(=O)(=O)c1ccc(Cl)c(COC2(c3cnccc3-c3ccccc3OC3CC3)CC2)c1)NC[C@H](O)[C@@H](O)[C@H](O)[C@H](O)CO` [Compound I-414, 1-{4-[N-(2-hydroxyethyl)4-chloro-3-({1-[4-(2-cyclopropoxyphenyl)pyridin-3-yl]cyclopropoxy}methyl)benzenesulfonamido]butyl}-3-[(2S,3R,4R,5R)-2,3,4,5,6-pentahydroxyhexyl]urea], for which the EC50 was under 100 nM.
